Values of other authors in PubChem BioAssay AID1259409 (Chemical Carcinogenesis Research Information System (CCRIS), 2018).

System: rodent chemically induced tumor inhibition, incidence and multiplicity
Assay: CCRIS tumor inhibitor studies
Settings: Carcinogen: 2,2'-DIHYDROXY-DI-N-PROPYLNITROSAMINE, 53609-64-6, 13147-25-6, Carcinogen: 2,2'-DIHYDROXY-DI-N-PROPYLNITROSAMINE, 53609-64-6, 13147-25-6, Dose [Inhibitor]: 0, Route [Inhibitor]: ORAL, Species: RAT, Promoter: NONE USED; for tumour outcome (control, treated, inhibition, significance): N-ETHYL-N-HYDROXYETHYLNITROSAMINE, Dose [Carcinogen]: 1000 MG/KG BW DHPN TWICE

## O=P(O)(O)OC1C(OP(=O)(O)O)C(OP(=O)(O)O)C(OP(=O)(O)O)C(OP(=O)(O)O)C1OP(=O)(O)O (stereo not given)
N-ETHYL-N-HYDROXYETHYL- NITROSAMINE, 3,2'-DIMETHYL-4-, N-ETHYL-N-HYDROXYETHYL- NITROSAMINE, 3,2'-DIMETHYL-4-, 2% IN DIET BEGINNING 1 WK POST LAST CARCINOGEN DOSE AND CONTINUING FOR 32 WK (STUDY DURATION: 36 WK), Strain/Sex: F344/MALE, Target Tissue: Type of Lesion: URINARY BLADDER: PAPILLOMA, Dose [Carcinogen]: 1000 MG/KG/ IP DHPN 2X, 1500 MG/KG/ GAV EHEN 2X AND 75 MG/KG SC DMAB 3X GIVEN OVER THE INITIAL 3 WK PERIOD AT 3-4 D INTE
  outcome: 0/14 (0%), 6/12 (50%), p<0.01n
3,2'-DIMETHYL-1,4-, 3,2'-DIMETHYL-1,4-, 1% IN DIET FOR 4 WK BEGINNING 1 D PRIOR TO FIRST CARCINOGEN DOSE (STUDY DURATION: 36 WK), Strain/Sex: F344/MALE, Target Tissue: Type of Lesion: KIDNEY: ADENOMA, 1500 MG/KG EHEN TWICE, 75 MG/KG BW DMAB 3 TIMES, SEQUENTIALLY OVER 3 WK
  tumour outcome (control, treated, inhibition, significance): 6/10 (60%), 6/14 (43%), 28%, not significant
3,2'-DIMETHYL-1,4-, 3,2'-DIMETHYL-1,4-, 1% IN DIET FOR 4 WK BEGINNING 1 D PRIOR TO FIRST CARCINOGEN DOSE (STUDY DURATION: 36 WK), Strain/Sex: F344/MALE, Target Tissue: Type of Lesion: LUNG: ADENOMA, 1500 MG/KG EHEN TWICE, 75 MG/KG BW DMAB 3 TIMES, SEQUENTIALLY OVER 3 WK
  tumour outcome (control, treated, inhibition, significance): 5/10 (50%), 9/14 (64%), -28%, not significant
3,2'-DIMETHYL-4-AMINO-, 3,2'-DIMETHYL-4-AMINO-, 2% IN DIET FOR 32 WK BEGINNING 1 WK POST CARCINOGEN TREATMENT (STUDY DURATION: 36 WK0, Strain/Sex: F344/MALE, Target Tissue: Type of Lesion: KIDNEY: NEPHROBLASTOMA, 1500 MG/KG BW EHEN TWICE, 75 MG/KG BW 3 TIMES ADMINISTERED OVER FIRST 3 WK
  tumour outcome (control, treated, inhibition, significance): 2/14 (14%), 3/12 (25%), -79%, not significant
3,2'-DIMETHYL-4-AMINO-, 3,2'-DIMETHYL-4-AMINO-, 2% IN DIET FOR 32 WK BEGINNING 1 WK POST CARCINOGEN TREATMENT (STUDY DURATION: 36 WK), Strain/Sex: F244/MALE, Target Tissue: Type of Lesion: THYROID GLAND: CARCINOMA, 1500 MG/KG BW EHEN TWICE, 75 MG/KG BW 3 TIMES ADMINISTERED OVER FIRST 3 WK
  tumour outcome (control, treated, inhibition, significance): 3/14 (21%), 2/12 (17%), 19%, not significant
3,2'-DIMETHYL-4-AMINO-, 3,2'-DIMETHYL-4-AMINO-, 2% IN DIET FOR 32 WK BEGINNING 1 WK POST CARCINOGEN TREATMENT (STUDY DURATION: 36 WK), Strain/Sex: F344/MALE, Target Tissue: Type of Lesion: KIDNEY: ADENOMA, 1500 MG/KG BW EHEN TWICE, 75 MG/KG BW 3 TIMES ADMINISTERED OVER FIRST 3 WK
  tumour outcome (control, treated, inhibition, significance): 6/14 (43%), 7/12 (58%), -35%, not significant
3,2'-DIMETHYL-4-AMINO-, 3,2'-DIMETHYL-4-AMINO-, 2% IN DIET FOR 32 WK BEGINNING 1 WK POST CARCINOGEN TREATMENT (STUDY DURATION: 36 WK), Strain/Sex: F344/MALE, Target Tissue: Type of Lesion: KIDNEY: TRANSITIONAL CELL CARCINOMA, 1500 MG/KG BW EHEN TWICE, 75 MG/KG BW 3 TIMES ADMINISTERED OVER FIRST 3 WK
  tumour outcome (control, treated, inhibition, significance): 1/14 (7%), 2/12 (17%), -143%, not significant
3,2'-DIMETHYL-4-AMINO-, 3,2'-DIMETHYL-4-AMINO-, 2% IN DIET FOR 32 WK BEGINNING 1 WK POST CARCINOGEN TREATMENT (STUDY DURATION: 36 WK), Strain/Sex: F344/MALE, Target Tissue: Type of Lesion: LARGE INTESTINE: CARCINOMA, 1500 MG/KG BW EHEN TWICE, 75 MG/KG BW 3 TIMES ADMINISTERED OVER FIRST 3 WK
  tumour outcome (control, treated, inhibition, significance): 3/14 (21%), 4/12 (33%), -57%, not significant
3,2'-DIMETHYL-4-AMINO-, 3,2'-DIMETHYL-4-AMINO-, 2% IN DIET FOR 32 WK BEGINNING 1 WK POST CARCINOGEN TREATMENT (STUDY DURATION: 36 WK), Strain/Sex: F344/MALE, Target Tissue: Type of Lesion: LIVER: HEPATOCELLULAR CARCINOMA, 15OO MG/KG BW EHEN TWICE, 75 MG/KG BW 3 TIMES ADMINISTERED OVER FIRST 3 WK
  tumour outcome (control, treated, inhibition, significance): 6/14 (43%), 1/12 (8%), 81%, not significant
3,2'-DIMETHYL-4-AMINO-, 3,2'-DIMETHYL-4-AMINO-, 2% IN DIET FOR 32 WK BEGINNING 1 WK POST CARCINOGEN TREATMENT (STUDY DURATION: 36 WK), Strain/Sex: F344/MALE, Target Tissue: Type of Lesion: LUNG: ADENOMA, 1500 MG/KG BW EHEN TWICE, 75 MG/KG BW 3 TIMES ADMINISTERED OVER FIRST 3 WK
  tumour outcome (control, treated, inhibition, significance): 7/14 (50%), 9/12 (75%), -50%, not significant
